Experimental data published in PubChem BioAssay AID330 (DTP/NCI, 2004).
Inconclusive results and toxic doses are left out.

Tested on: P388 leukemia ip, CD2F1 mice, survival T/C
Assay: NCI In Vivo Anticancer Drug Screen. Data for tumor model P388 Leukemia (intraperitoneal) in CD2F1 (CDF1) mice
Details: endpoint: median survival time, higher = longer survival
Outline: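 Mice carrying the transplanted tumor received test compound or vehicle. Survival was recorded in each group, and the value is the treated-group measurement divided by that of the vehicle-treated control group.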

[1] = dose: 12.5 mg/kg/injection, schedule: Q01DX005 (ip), vehicle: Klucel (hydroxypropylcellulose) (HPC)
[2] = dose: 25.0 mg/kg/injection, schedule: Q01DX005 (ip), vehicle: Klucel (hydroxypropylcellulose) (HPC)
[3] = dose: 50.0 mg/kg/injection, schedule: Q01DX005 (ip), vehicle: Klucel (hydroxypropylcellulose) (HPC)
[4] = dose: 100.0 mg/kg/injection, schedule: Q01DX005 (ip), vehicle: Klucel (hydroxypropylcellulose) (HPC)
[5] = dose: 200.0 mg/kg/injection, schedule: Q01DX005 (ip), vehicle: Klucel (hydroxypropylcellulose) (HPC)
[6] = dose: 100.0 mg/kg/injection, schedule: Q01DX001 (ip), vehicle: saline with Tween-80
[7] = dose: 200.0 mg/kg/injection, schedule: Q01DX001 (ip), vehicle: saline with Tween-80
[8] = dose: 400.0 mg/kg/injection, schedule: Q01DX001 (ip), vehicle: saline with Tween-80
[9] = dose: 50.0 mg/kg/injection, schedule: Q01DX005 (ip), vehicle: saline with Tween-80
[10] = dose: 100.0 mg/kg/injection, schedule: Q01DX005 (ip), vehicle: saline with Tween-80
[11] = dose: 200.0 mg/kg/injection, schedule: Q01DX005 (ip), vehicle: saline with Tween-80
[12] = dose: 60.0 mg/kg/injection, schedule: Q01DX005 (ip), vehicle: saline with Tween-80
[13] = dose: 120.0 mg/kg/injection, schedule: Q01DX005 (ip), vehicle: saline with Tween-80
[14] = dose: 240.0 mg/kg/injection, schedule: Q01DX005 (ip), vehicle: saline with Tween-80
[15] = dose: 200.0 mg/kg/injection, schedule: Q01DX009 (ip), vehicle: saline with Tween-80

In the case of `O=C(O)CSc1cc(Cl)ccc1Cl`, the T/C (dose: 12.5 mg/kg/injection, schedule: Q04DX003 (ip), vehicle: Klucel (hydroxypropylcellulose) (HPC)) is reported as 102 % of control, the T/C (dose: 25.0 mg/kg/injection, schedule: Q04DX003 (ip), vehicle: Klucel (hydroxypropylcellulose) (HPC)) is reported as 100 % of control and the T/C (dose: 50.0 mg/kg/injection, schedule: Q04DX003 (ip), vehicle: Klucel (hydroxypropylcellulose) (HPC)) is reported as 102 % of control. For the same compound, the T/C (dose: 100.0 mg/kg/injection, schedule: Q04DX003 (ip), vehicle: Klucel (hydroxypropylcellulose) (HPC)) was 103 % of control.

With `CN1C(N)=NC(c2ccccc2)=CC1(C)c1ccccc1` (stereo not drawn) the T/C (dose: 6.25 mg/kg/injection, schedule: Q01DX005 (ip), vehicle: Klucel (hydroxypropylcellulose) (HPC)) was 101 % of control, the T/C [1] was 99 % of control and the T/C [2] was 108 % of control.

For `COc1cccc(C2NC(c3cccc(OC)c3)C3CCCC2C3=O)c1` (stereo not drawn), the T/C [2] was 103 % of control, the T/C [3] was 102 % of control and the T/C [4] was 106 % of control. For the same compound, the T/C [5] was 102 % of control.

In the case of `CCCCCC1=CC2C(=O)NC(=O)NC12` (stereo not drawn), the T/C [1] is reported as 98 % of control, the T/C [2] is reported as 97 % of control and the T/C [3] is reported as 105 % of control. For the same compound, the T/C [4] was 96 % of control.

For `COC1C(c2cc(C(N)=O)n(-c3ccc([N+](=O)[O-])cc3)n2)OC2OC(C)(C)OC21` (stereo not drawn), the T/C [6] was 100 % of control, the T/C [7] was 96 % of control and the T/C [8] was 94 % of control.

With `CC(C)(C)N1OC1c1ccccc1` (stereo not drawn) the T/C (dose: 25.0 mg/kg/injection, schedule: Q04DX003 (ip), vehicle: saline with Tween-80) was 108 % of control, the T/C (dose: 50.0 mg/kg/injection, schedule: Q04DX003 (ip), vehicle: saline with Tween-80) was 105 % of control and the T/C (dose: 100.0 mg/kg/injection, schedule: Q04DX003 (ip), vehicle: saline with Tween-80) was 108 % of control. For the same compound, the T/C (dose: 200.0 mg/kg/injection, schedule: Q04DX003 (ip), vehicle: saline with Tween-80) was 108 % of control.

For `CNC(=S)N/N=C/Cn1ccc(=O)[nH]c1=O`, the T/C [3] was 89 % of control and the T/C [4] was 90 % of control.

With `CC(N1CCS(=O)(=O)CC1)P(=O)(O)O` (stereo not drawn) the T/C [9] was 90 % of control, the T/C [10] was 99 % of control and the T/C [11] was 100 % of control.

With `COc1cc2c(c(OC)c1OC)-c1ccc(OC)c(=O)cc1C(=O)CC2` the T/C (dose: 0.62 mg/kg/injection, schedule: Q01DX009 (ip), vehicle: Klucel (hydroxypropylcellulose) (HPC)) was 115 % of control and the T/C (dose: 5.0 mg/kg/injection, schedule: Q01DX009 (ip), vehicle: Klucel (hydroxypropylcellulose) (HPC)) was 157 % of control.

With `C[n+]1cccc(Oc2ccc[n+](C)c2)c1` the T/C [12] was 100 % of control, the T/C [13] was 99 % of control and the T/C [14] was 109 % of control.

In the case of `Cc1ccc(Nc2ccc(Nc3ccc(C)cc3)c3c2C(=O)c2cccc(O)c2C3=O)cc1`, the T/C (dose: 50.0 mg/kg/injection, schedule: Q01DX009 (ip), vehicle: saline with Tween-80) is reported as 101 % of control, the T/C (dose: 100.0 mg/kg/injection, schedule: Q01DX009 (ip), vehicle: saline with Tween-80) is reported as 95 % of control and the T/C [15] is reported as 97 % of control.

In the case of `COc1c2occc2c(N=Cc2ccncc2)c2ccc(=O)oc12`, the T/C [6] is reported as 88 % of control, the T/C [7] is reported as 90 % of control and the T/C [8] is reported as 96 % of control.

For `O=C1CC2CCC1CC2c1cnc[nH]1` (stereo not drawn), the T/C (dose: 25.0 mg/kg/injection, schedule: Q04DX002 (ip), vehicle: saline with Tween-80) was 93 % of control, the T/C (dose: 50.0 mg/kg/injection, schedule: Q04DX002 (ip), vehicle: saline with Tween-80) was 100 % of control and the T/C (dose: 100.0 mg/kg/injection, schedule: Q04DX002 (ip), vehicle: saline with Tween-80) was 102 % of control.

In the case of `COC1C2=C(CCCC2)OC(=O)C1(Cl)c1ccccc1` (stereo not drawn), the T/C [3] is reported as 96 % of control, the T/C [4] is reported as 101 % of control and the T/C [5] is reported as 101 % of control.

In the case of `O=C1c2ccccc2-c2c1c1ccccc1c(=O)n2CCO`, the T/C [9] is reported as 96 % of control, the T/C [10] is reported as 94 % of control and the T/C [11] is reported as 105 % of control.

In the case of `COc1ccc(C(C)c2cc3c(cc2OCC(C)=O)OCO3)cc1` (stereo not drawn), the T/C [12] is reported as 97 % of control, the T/C [13] is reported as 94 % of control and the T/C [14] is reported as 94 % of control.

`COCCCNC(=S)N/N=C/c1cc(Cl)cc(Cl)c1O` was tested, and the T/C (dose: 6.25 mg/kg/injection, schedule: Q01DX009 (ip), vehicle: saline with Tween-80) was 92 % of control, the T/C (dose: 12.5 mg/kg/injection, schedule: Q01DX009 (ip), vehicle: saline with Tween-80) was 87 % of control and the T/C [15] was 93 % of control.
